From patent US20250179017A1 (GUANGDONG NEWOPP BIOPHARMACEUTICALS CO., LTD., priority 2022, published 2025)

What was measured:
human EP4 (EP4R) = biological target: T1, human EP4 (EP4R) (Homo sapiens, UniProt P35408); assay: EP4 antagonist assay (HEK-293 CNG membrane potential cAMP assay / 293T SEAP reporter assay, PGE2-stimulated); assay type: cell-based; conditions: EP4 antagonist activity; concentration for inhibition of signal compared to DMSO
T1 construct: Cayman Chemical (Human EP4 Reporter Assay Kit)
Text: 1. The HEK-293 CNG (Cyclic Nucleotide Gated) cell line expressing a modified CNG channel that leads to cell membrane depolarization in response to elevated intracellular cAMP levels, which can be measured using a fluorescent membrane potential dye, was engineered to express human EP2 (PTGER2) or EP4 (EP4R). The resulting cell line ACTOne™ PTGER2 or ACTOne™ EP4R as well as the fluorescent membrane potential dye were purchased from eEnzyme (Gaithersburg, MD, US) and used in this assay. Briefly, cells were plated at 1.2×10^4 cells/well in 20 μL DMEM supplemented with 2% Fetal Bovine Serum (FBS, VWR International), 1x Penicillin/Streptomycin (GenClone), 0.2 μg/mL puromycin (InvivoGen) and 50 μg/mL G418 (InvivoGen) on a 384 well plate (Greiner). The next day, cells were dye-loaded with 20 μL/well of 1x Dye-loading solution (eENZYME) following the manufacturer's instruction. After 2 hours of incubation at room temperature (RT) in the dark, a pre-read was made to obtain the background signals using CLARIOstar plate reader (BMG LABTECH, Germany) with the following filter settings: excitation=530/20 nm, emission=590/20 nm. Next, a serial dilution of compound (plus a DMSO control) were added to the plate (5 μL/well) and the reaction was incubated at RT for 15 min before adding 5 μL of PGE2 to every well for a final concentration of 5 nM. All wells were duplicated. The plate was then further incubated at RT for 30 min prior to a final read with the same machine settings. Background-subtracted signals were used to calculate IC50 values.
2. Human EP2 and EP4 Reporter Assay Kits were purchased from Cayman Chemical (Ann Arbor, MI, USA). The assay was performed following the provided User Manual. Briefly, a reverse transfection was performed by seeding 6.0×10^4 of 293T cells (ATCC) to each well of the provided Strip Plate coated with a proprietary transfection complex containing DNA constructs for expressing human EP2 or EP4 and a cAMP response element regulated secreted alkaline phosphatase (SEAP) reporter, in 200 μL DMEM supplemented with 2% FBS and incubated for 20-24 hours at 37° C. with 5% CO2. After the incubation, the culture medium was carefully removed, and the cells were replenished with 150 μL pre-warmed serum-free medium. PGE2 and test compounds were prepared together at 4x the desired final concentration, and 50 μL was added to each assigned well with the final concentration of 13 nM and 2 nM PGE2 for EP2 and EP4 assay, respectively. After 6-8 hours of incubation, 10 μL media from each well was transferred to corresponding well of a new plate, which was then sealed and incubated at 65° C. for 30 min. The plate was then cooled down to RT and 50 μL SEAP substrate was added to each well. Luminescence signal was measured using a CLARIOstar plate reader.
The IC50 value was determined as the concentration for […] inhibition of signal compared to DMSO (A: IC50≤100 nM; B: IC50 between 100 nM and 1,000 nM; C: IC50≥1,000 nM).

human EP2 (PTGER2) = biological target: T2, human EP2 (PTGER2) (Homo sapiens, UniProt P43116); assay: EP2 antagonist assay (HEK-293 CNG membrane potential cAMP assay / 293T SEAP reporter assay, PGE2-stimulated); assay type: cell-based; conditions: EP2 antagonist activity; concentration for 50% inhibition of signal compared to DMSO
T2 construct: Cayman Chemical (Human EP2 Reporter Assay Kit)
Summary of the method: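 Two formats. In a CRE-SEAP reporter assay, reverse-transfected 293T cells received compound with PGE2 (13 nM final) for 6-8 h, then luminescence was read. In the ACTOne CNG format, HEK-293 cells were preincubated with compound for 15 min at RT, stimulated with 5 nM PGE2 for 30 min, and read by membrane-potential dye fluorescence. IC50 was taken versus DMSO.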

T2 sequence (P43116 whole entry): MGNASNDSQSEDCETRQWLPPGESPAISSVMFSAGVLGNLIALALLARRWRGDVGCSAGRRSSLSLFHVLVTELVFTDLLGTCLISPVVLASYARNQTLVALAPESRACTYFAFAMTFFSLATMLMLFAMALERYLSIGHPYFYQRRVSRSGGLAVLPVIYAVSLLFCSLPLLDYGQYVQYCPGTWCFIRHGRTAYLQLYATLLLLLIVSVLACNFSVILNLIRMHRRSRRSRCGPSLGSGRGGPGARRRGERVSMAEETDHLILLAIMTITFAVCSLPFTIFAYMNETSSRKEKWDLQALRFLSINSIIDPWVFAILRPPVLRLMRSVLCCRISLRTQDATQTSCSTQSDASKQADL
T1 sequence (P35408 whole entry): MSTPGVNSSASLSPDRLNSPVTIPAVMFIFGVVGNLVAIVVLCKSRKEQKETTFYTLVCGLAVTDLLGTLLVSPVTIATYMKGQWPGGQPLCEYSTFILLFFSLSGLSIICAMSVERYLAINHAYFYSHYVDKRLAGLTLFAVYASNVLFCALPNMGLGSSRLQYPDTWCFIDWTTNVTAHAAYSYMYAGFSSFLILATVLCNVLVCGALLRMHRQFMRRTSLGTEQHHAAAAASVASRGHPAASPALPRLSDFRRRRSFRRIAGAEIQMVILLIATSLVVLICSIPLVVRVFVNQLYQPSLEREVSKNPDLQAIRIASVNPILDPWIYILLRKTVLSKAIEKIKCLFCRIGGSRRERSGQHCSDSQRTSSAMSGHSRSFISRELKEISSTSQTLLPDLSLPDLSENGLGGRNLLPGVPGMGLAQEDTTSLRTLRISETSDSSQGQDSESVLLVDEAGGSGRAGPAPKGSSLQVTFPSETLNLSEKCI

IC50 (human EP4 (EP4R))	IC50 (human EP2 (PTGER2))	SMILES
≤ 0.1 µM	< 0.1 µM	O=C(O)c1ccc(CNC(=O)c2cc(-c3cc(F)cc(F)c3)cc3ccn(Cc4cccc(Cl)c4)c23)cc1 [Example 106, 4-((1-(3-chlorobenzyl)-5-(3,5-difluorophenyl)-1H-indole-7-carboxamido)methyl)benzoic acid]
≤ 0.1 µM	< 0.1 µM	O=C(O)c1ccc(CNC(=O)c2cc(-c3ccccc3)cc3cnn(Cc4ccc(-c5ccccc5)cc4)c23)cc1 [Example 190, 4-((1-([1,1′-biphenyl]-4-ylmethyl)-5-phenyl-1H-indazole-7-carboxamido)methyl)benzoic acid]
≤ 0.1 µM	< 0.1 µM	O=C(O)c1ccc(CNC(=O)c2cc(-c3ccccc3)cc3cnn(Cc4cccc(C(F)(F)F)c4)c23)cc1 [Example 137, 4-((5-phenyl-1-(3-(trifluoromethyl)benzyl)-1H-indazole-7-carboxamido)methyl)benzoic acid]
≤ 0.1 µM	< 0.1 µM	O=C(O)c1ccc(C2(NC(=O)c3ccc(Nc4ccccc4)c4ccn(Cc5ccc(C(F)(F)F)cc5)c34)CC2)cc1 [Example 44, 4-(1-(4-(phenylamino)-1-(4-(trifluoromethyl)benzyl)-1H-indole-7-carboxamido)cyclopropyl)benzoic acid]
≤ 0.1 µM	< 0.1 µM	O=C(O)c1ccc(CNC(=O)c2cc(-c3ccc(F)cc3)cc3cnn(Cc4ccc5ccccc5c4)c23)cc1 [Example 166, 4-((5-(4-fluorophenyl)-1-(naphthalen-2-ylmethyl)-1H-indazole-7-carboxamido)methyl)benzoic acid]
≤ 0.1 µM	< 0.1 µM	C[C@H](NC(=O)c1cc(-c2ccccc2)cc2ccn(Cc3ccc(-c4ccccc4)cc3)c12)c1ccc(C(=O)O)cc1 [Example 150, (S)-4-(1-(1-([1,1′-biphenyl]-4-ylmethyl)-5-phenyl-1H-indole-7-carboxamido)ethyl)benzoic acid]
≤ 0.1 µM	< 0.1 µM	C[C@H](NC(=O)c1cc(-c2cc(F)cc(F)c2)cc2ccn(Cc3ccc(-c4ccccc4)cc3)c12)c1ccc(C(=O)O)cc1 [Example 152, (S)-4-(1-(1-([1,1′-biphenyl]-4-ylmethyl)-5-(3,5-difluorophenyl)-1H-indole-7-carboxamido)ethyl)benzoic acid]
≤ 0.1 µM	< 0.1 µM	O=C(O)c1ccc(CNC(=O)c2cc(-c3ccc(F)cc3)cc3nnn(Cc4ccc(C(F)(F)F)cc4)c23)cc1 [Example 175]
≤ 0.1 µM	< 0.1 µM	C[C@H](NC(=O)c1cc(-c2ccccc2)cc2cnn(Cc3ccc(C(F)(F)F)cc3)c12)c1ccc(C(=O)O)cc1 [Example 100, (S)-4-(1-(5-phenyl-1-(4-(trifluoromethyl)benzyl)-1H-indazole-7-carboxamido)ethyl)benzoic acid]
≤ 0.1 µM	< 0.1 µM	C[C@H](NC(=O)c1cc(-c2ccc(F)cc2)cc2cnn(Cc3cccc(C(F)(F)F)c3)c12)c1ccc(C(=O)O)cc1 [Example 134, (S)-4-(1-(5-(4-fluorophenyl)-1-(3-(trifluoromethyl)benzyl)-1H-indazole-7-carboxamido)ethyl)benzoic acid]

Further lines, the compound ahead of its results:

SMILES	IC50 (human EP4 (EP4R))	IC50 (human EP2 (PTGER2))
C[C@H](NC(=O)c1cc(-c2cc(F)cc(F)c2)cc2cnn(Cc3cccc(C(F)(F)F)c3)c12)c1ccc(C(=O)O)cc1 [Example 136, (S)-4-(1-(5-(3,5-difluorophenyl)-1-(3-(trifluoromethyl)benzyl)-1H-indazole-7-carboxamido)ethyl)benzoic acid]	≤ 0.1 µM	< 0.1 µM
O=C(O)c1ccc(CNC(=O)c2cc(-c3ccc(F)cc3)cc3ccn(Cc4ccc(C(F)(F)F)cc4)c23)cc1 [Example 1, 4-((5-(4-fluorophenyl)-1-(4-(trifluoromethyl)benzyl)-1H-indole-7-carboxamido)methyl)benzoic acid]	≤ 0.1 µM	< 0.1 µM
C[C@H](NC(=O)c1cc(-c2ccccc2)cc2ccn(Cc3ccc(C(F)(F)F)cc3)c12)c1ccc(C(=O)O)cc1 [Example 51, (S)-4-(1-(5-phenyl-1-(4-(trifluoromethyl)benzyl)-1H-indole-7-carboxamido)ethyl) benzoic acid]	≤ 0.1 µM	< 0.1 µM
O=C(O)c1ccc(CNC(=O)c2ccc(Nc3ccccc3)c3ccn(Cc4ccc(-c5ccccc5)cc4)c23)cc1 [Example 154, 4-((1-([1,1′-biphenyl]-4-ylmethyl)-4-(phenylamino)-1H-indole-7-carboxamido)methyl) benzoic acid]	≤ 0.1 µM	< 0.1 µM
C[C@@H](NC(=O)c1cc(-c2ccccc2)cc2cnn(Cc3cccc(C(F)(F)F)c3)c12)[C@H]1CC[C@H](C(=O)O)CC1 [Example 224, (1R,4r)-4-((R)-1-(5-phenyl-1-(3-(trifluoromethyl)benzyl)-1H-indazole-7-carboxamido)ethyl)cyclohexane-1-carboxylic acid]	≤ 0.1 µM	< 0.1 µM
C[C@H](NC(=O)c1cc(-c2cc(F)cc(F)c2)cc2cnn(Cc3ccc4ccccc4c3)c12)c1ccc(C(=O)O)cc1 [Example 169, (S)-4-(1-(5-(3,5-difluorophenyl)-1-(naphthalen-2-ylmethyl)-1H-indazole-7-carboxamido)ethyl)benzoic acid]	≤ 0.1 µM	< 0.1 µM
C[C@H](NC(=O)c1cc(-c2ccc(F)cc2)cc2ccn(Cc3ccc(C(F)(F)F)cc3)c12)c1ccc(C(=O)O)cc1 [Example 50, (S)-4-(1-(5-(4-fluorophenyl)-1-(4-(trifluoromethyl)benzyl)-1H-indole-7-carboxamido)ethyl) benzoic acid]	≤ 0.1 µM	< 0.1 µM
O=C(O)c1ccc(CNC(=O)c2ccc(Nc3ccccc3)c3ccn(Cc4ccc(C(F)(F)F)cc4)c23)cc1 [Example 57, 4-((4-(phenylamino)-1-(4-(trifluoromethyl)benzyl)-1H-indole-7-carboxamido)methyl)benzoic acid]	0.1 to 1 µM	< 0.1 µM
